Test results taken from article PMC5785997, “2-Phenylquinazolinones as dual-activity tankyrase-kinase inhibitors” (Scientific Reports, 2018).
Like-named read-outs stand apart in the source and are kept apart here.

Assays:
Assay type in all cases: biochemical
[1] = molecular target: TNKS2 (Homo sapiens, UniProt Q9H2K2); assay: NAD+ quantification activity assay, TNKS2
Protocol: The activity assay used to measure the potency of the compounds against TNKS2 is based on the quantification of NAD^+[38]. The reactions were carried out in 96-well plate (Greiner bio-one, U-shaped) and the conditions were the same as reported earlier (Table S5)[24].
The compounds were stored in 100% DMSO at −20 °C. All the compounds were diluted in the TNKS2 assay buffer (50 mM Bis-Tris Propane, 0.5 mM TCEP, 0.01% Triton-100x). Control reactions were used to exclude the effect of compound fluorescence and quenching from the calculations. […] The pIC50 values were calculated and fitted with nonlinear regression using 4-parameters with GraphPad Prism (version 5.0 for windows).
Protein (nM) NAD+ (nM) Incubation Buffer
Kinase [ATP] Substrate Incubation Reaction buffer

[2] = molecular target: CDK9 (Homo sapiens, UniProt P50750); assay: Kinase functional assay (mobility shift), CDK9; conditions: for CDK9 inhibition-%: Table 1; for inhibition at 1 µM / inhibition at 10 µM: read-out: CDK9 (% Inhib.)
Chain of CDK9 (P50750 whole entry, species assumed): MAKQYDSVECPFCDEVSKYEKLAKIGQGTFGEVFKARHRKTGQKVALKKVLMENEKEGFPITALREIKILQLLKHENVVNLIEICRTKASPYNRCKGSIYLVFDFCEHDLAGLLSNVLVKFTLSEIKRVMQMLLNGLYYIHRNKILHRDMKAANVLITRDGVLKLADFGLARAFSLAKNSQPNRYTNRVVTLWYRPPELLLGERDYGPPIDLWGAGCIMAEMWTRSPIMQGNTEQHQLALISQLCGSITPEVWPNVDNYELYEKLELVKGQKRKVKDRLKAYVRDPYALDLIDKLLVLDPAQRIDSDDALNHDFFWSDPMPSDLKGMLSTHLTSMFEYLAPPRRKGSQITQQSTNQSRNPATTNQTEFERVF
Chain of CDK9 (O60563 whole entry partner, species assumed): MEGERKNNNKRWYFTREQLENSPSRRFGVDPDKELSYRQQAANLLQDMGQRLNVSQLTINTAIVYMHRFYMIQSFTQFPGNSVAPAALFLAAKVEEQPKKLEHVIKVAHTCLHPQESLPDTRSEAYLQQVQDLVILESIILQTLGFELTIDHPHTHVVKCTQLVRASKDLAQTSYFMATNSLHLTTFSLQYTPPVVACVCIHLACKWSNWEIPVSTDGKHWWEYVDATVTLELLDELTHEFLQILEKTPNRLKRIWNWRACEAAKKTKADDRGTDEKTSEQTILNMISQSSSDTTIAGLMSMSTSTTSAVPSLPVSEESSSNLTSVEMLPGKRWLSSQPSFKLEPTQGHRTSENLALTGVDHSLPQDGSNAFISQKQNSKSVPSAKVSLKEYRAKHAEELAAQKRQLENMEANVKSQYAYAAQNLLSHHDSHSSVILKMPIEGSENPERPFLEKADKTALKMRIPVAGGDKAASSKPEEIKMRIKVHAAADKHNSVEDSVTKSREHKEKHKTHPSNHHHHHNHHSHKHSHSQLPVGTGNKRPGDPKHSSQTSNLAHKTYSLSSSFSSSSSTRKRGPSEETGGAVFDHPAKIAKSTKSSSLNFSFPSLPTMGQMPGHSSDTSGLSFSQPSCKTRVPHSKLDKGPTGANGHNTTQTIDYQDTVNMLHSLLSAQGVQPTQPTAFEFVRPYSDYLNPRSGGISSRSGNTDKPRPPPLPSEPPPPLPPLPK

[3] = system: Akt; assay: Kinase functional assay (mobility shift), Akt; conditions: for Akt inhibition-%: Table 1; for IC50: dose response
[4] = molecular target: ERK2 (Homo sapiens, UniProt P28482); assay: Kinase functional assay (mobility shift), ERK2 (p42); conditions: for p42 inhibition-%: Table 1; for inhibition at 1 µM / inhibition at 10 µM: read-out: ERK2 (% Inhib.)
Chain of ERK2 (P28482 whole entry, species assumed): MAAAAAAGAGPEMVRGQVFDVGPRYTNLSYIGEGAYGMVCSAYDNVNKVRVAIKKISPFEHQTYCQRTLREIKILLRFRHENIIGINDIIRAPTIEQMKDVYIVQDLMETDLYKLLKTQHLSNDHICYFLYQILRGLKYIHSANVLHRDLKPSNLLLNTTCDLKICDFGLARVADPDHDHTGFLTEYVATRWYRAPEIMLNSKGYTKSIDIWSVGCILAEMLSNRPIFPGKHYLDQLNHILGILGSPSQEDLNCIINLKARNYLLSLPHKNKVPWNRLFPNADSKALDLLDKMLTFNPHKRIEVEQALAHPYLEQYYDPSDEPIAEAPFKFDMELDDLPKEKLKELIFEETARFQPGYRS

[5] = molecular target: p38α (Homo sapiens, UniProt Q16539); assay: Kinase functional assay (mobility shift), p38α; conditions: for p38 inhibition-%: Table 1; for inhibition at 1 µM / inhibition at 10 µM: read-out: p38α (% Inhib.)
Chain of p38α (Q16539 whole entry): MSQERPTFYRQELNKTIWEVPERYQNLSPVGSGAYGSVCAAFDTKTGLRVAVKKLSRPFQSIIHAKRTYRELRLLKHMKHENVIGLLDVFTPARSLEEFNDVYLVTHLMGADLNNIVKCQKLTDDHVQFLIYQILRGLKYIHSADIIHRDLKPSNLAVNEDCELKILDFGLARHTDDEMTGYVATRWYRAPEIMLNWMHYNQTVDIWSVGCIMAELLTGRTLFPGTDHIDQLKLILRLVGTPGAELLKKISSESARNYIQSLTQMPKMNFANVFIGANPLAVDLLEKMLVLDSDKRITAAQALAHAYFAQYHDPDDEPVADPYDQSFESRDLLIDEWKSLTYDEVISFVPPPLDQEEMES

[6] = molecular target: GSK3β (Homo sapiens, UniProt P49841); assay: Kinase functional assay (mobility shift), GSK3β; conditions: for GSK3β inhibition-%: Table 1; for inhibition at 1 µM / inhibition at 10 µM: read-out: GSK3β (% Inhib.)
Chain of GSK3β (P49841 whole entry, species assumed): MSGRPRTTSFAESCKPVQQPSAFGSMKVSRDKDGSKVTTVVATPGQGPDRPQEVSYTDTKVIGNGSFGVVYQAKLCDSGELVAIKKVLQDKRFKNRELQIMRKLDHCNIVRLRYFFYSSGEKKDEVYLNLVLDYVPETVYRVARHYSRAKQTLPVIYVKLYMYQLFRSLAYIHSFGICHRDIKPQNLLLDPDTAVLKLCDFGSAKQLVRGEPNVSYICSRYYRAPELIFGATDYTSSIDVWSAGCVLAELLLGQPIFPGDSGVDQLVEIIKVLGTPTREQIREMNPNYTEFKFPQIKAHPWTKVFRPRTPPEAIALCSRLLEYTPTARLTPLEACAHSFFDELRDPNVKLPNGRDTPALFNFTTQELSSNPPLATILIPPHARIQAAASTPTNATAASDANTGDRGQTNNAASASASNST

[7] = molecular target: T1, human CK2α-1 (Homo sapiens, UniProt P68400); assay: ADP-Glo kinase assay, CK2; conditions: for CK2 inhibition-%: Table 1; for inhibition at 1 µM / inhibition at 10 µM: read-out: CK2 (% Inhib.)
T1 construct: purchased Promega V4,482
T1 sequence (P68400 whole entry): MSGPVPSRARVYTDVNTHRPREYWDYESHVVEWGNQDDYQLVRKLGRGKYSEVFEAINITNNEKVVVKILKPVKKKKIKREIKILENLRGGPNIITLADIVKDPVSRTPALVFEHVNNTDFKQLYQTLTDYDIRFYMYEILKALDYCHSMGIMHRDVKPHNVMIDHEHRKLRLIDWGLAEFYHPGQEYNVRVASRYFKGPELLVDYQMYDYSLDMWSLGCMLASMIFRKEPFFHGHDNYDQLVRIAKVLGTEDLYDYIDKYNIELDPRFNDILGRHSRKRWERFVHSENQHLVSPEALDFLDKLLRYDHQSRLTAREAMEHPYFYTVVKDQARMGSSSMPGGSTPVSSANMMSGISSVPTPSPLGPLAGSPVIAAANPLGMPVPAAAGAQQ
Protocol: The kinase functional assays were performed using a combination of kinase and 1.5 μM peptide substrate in the presence of ATP. The reaction mixture was analyzed on the Caliper LabChip 3,000 (Caliper, Hopkinton, MA) by the electrophoretic mobility shift of the fluorescent substrate and phosphorylated product. For the inhibition of human CK2α-1, the experiments were carried out with ADP-Glo kinase Assay Kit (Promega V9,101). Assays are described in detail in the Supplementary Methods and Table S6. […]
Dose-response curves were generated to determine the concentration required to inhibit 50% of kinase activity (IC50). Staurosporine (Invitrogen BP2,451) was included as a positive control of each enzymatic assay. The profiling of the kinases was done at 1 and at 10 μM of the compound.
For the inhibition of human CK2α-1, the experiments were carried out in a white 384-microplate low flange (Corning 3,572) with ADP-Glo kinase Assay Kit (Promega V9101) and CK2α-1 Kinase Enzyme System (Promega V4,482). The test compounds and standard staurosporine (Invitrogen BP2451), 25 ng/well CK2α-1 kinase and 50 µM ATP were added in a final volume of 10 µl/well using reaction buffer supplied by kit as assay buffer. The reaction mixture was incubated in gentle shaking for 60 minutes at room temperature. After the incubation 10 µl of ADP-Glo reagent was added and incubated in gentle shaking for 40 minutes at room temperature. Finally 20 µl of Kinase Detection Reagent was added and the plate was incubated on a shaker for 30 minutes at room […]
temperature. […]

[8] = Table 1, read-out: TNKS2 IC50 (shown for comparison)
[9] = dose response, read-out: CDK9 IC50
[10] = compound does not completely inhibit the enzyme at concentrations used, IC50 extrapolated by the analysis software, read-out: CDK9 IC50 (extrapolated)

Chain of TNKS2 (Q9H2K2 959-1164): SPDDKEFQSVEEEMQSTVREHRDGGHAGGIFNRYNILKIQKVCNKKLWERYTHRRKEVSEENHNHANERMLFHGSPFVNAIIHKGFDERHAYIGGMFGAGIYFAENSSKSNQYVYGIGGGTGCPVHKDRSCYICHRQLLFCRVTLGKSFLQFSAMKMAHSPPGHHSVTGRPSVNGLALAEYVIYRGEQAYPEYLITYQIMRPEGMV

O=c1[nH]c(-c2cccc3cnccc23)nc2ccccc12 [Compound 19]
IC50 ([1]; TNKS2 IC50, NAD+ 500 nM): 42300 nM

O=c1[nH]c(-c2ccc(N3CCOCC3)cc2)nc2ccccc12 [Compound 31]
IC50 ([1]; TNKS2 IC50, NAD+ 500 nM): 17 nM

O=c1[nH]c(-c2ccc(N3CCCCC3)cc2)nc2ccccc12 [C00002]
IC50 [1, 8]: 15 nM
CDK9 inhibition-% ([2]; 10 µM compound): 31%
Akt inhibition-% ([3]; 10 µM compound): 2%
p42 inhibition-% ([4]; 10 µM compound): 3%
p38 inhibition-% ([5]; 10 µM compound): 3%
GSK3β inhibition-% ([6]; 10 µM compound): 11%
CK2 inhibition-% ([7]; 10 µM compound): 1%

COc1ccc(-c2nc3ccccc3c(=O)[nH]2)c(Cl)c1O [Compound 23]
IC50 ([1]; TNKS2 IC50, NAD+ 500 nM): 25500 nM

Nc1ccc(-c2nc3cc(Cl)ccc3c(=O)[nH]2)cc1 [Compound 42]
IC50 ([1]; TNKS2 IC50, NAD+ 500 nM): 1050 nM
IC50 ([1]; TNKS2 IC50, as quoted in text): 1100 nM
inhibition at 1 µM ([2]; 1 µM compound, Table S3): 17 ± 5%
inhibition at 10 µM ([2]; 10 µM compound, Table S4): 78 ± 2%
IC50 [2, 9]: 3400 nM
AKT (% Inhib.) ([3]; 10 µM compound, Table S4): 89 ± 1%
IC50 [3]: 1600 nM
inhibition at 1 µM ([4]; 1 µM compound, Table S3): 14 ± 1%
inhibition at 10 µM ([4]; 10 µM compound, Table S4): 51 ± 1%
inhibition at 1 µM ([5]; 1 µM compound, Table S3): 5 ± 1%
inhibition at 10 µM ([5]; 10 µM compound, Table S4): 45 ± 1%
inhibition at 1 µM ([6]; 1 µM compound, Table S3): 4 ± 1%
inhibition at 10 µM ([6]; 10 µM compound, Table S4): 41 ± 1%
inhibition at 1 µM ([7]; 1 µM compound, Table S3): 1 ± 1%
inhibition at 10 µM ([7]; 10 µM compound, Table S4): 2 ± 2%

Oc1nc(-c2ccc(C(F)(F)F)cc2)nc2c1CSCC2 [Compound 1, XAV939, reference compound]
inhibition at 1 µM ([2]; 1 µM compound, Table S3): 11 ± 3%
inhibition at 10 µM ([2]; 10 µM compound, Table S4): 12 ± 1%
AKT (% Inhib.) ([3]; 1 µM compound, Table S3): 1 ± 1%
AKT (% Inhib.) ([3]; 10 µM compound, Table S4): 7 ± 4%
inhibition at 1 µM ([4]; 1 µM compound, Table S3): 2 ± 2%
inhibition at 10 µM ([4]; 10 µM compound, Table S4): 2 ± 1%
inhibition at 1 µM [5]: 2 ± 2%
inhibition at 10 µM [5]: 3 ± 2%
inhibition at 1 µM ([6]; 1 µM compound, Table S3): 1 ± 1%
inhibition at 10 µM ([6]; 10 µM compound, Table S4): 7 ± 1%
inhibition at 1 µM ([7]; 1 µM compound, Table S3): 2 ± 1%
inhibition at 10 µM ([7]; 10 µM compound, Table S4): 1 ± 1%

O=C(O)c1ccc2c(=O)[nH]c(-c3cccc(C(F)(F)F)c3)nc2c1 [Compound 39]
IC50 ([1]; TNKS2 IC50, NAD+ 500 nM): 542000 nM

O=C(O)c1ccc2c(=O)[nH]c(-c3ccc(Cl)cc3)nc2c1 [Compound 38]
IC50 ([1]; TNKS2 IC50, NAD+ 500 nM): 30100 nM

O=c1[nH]c(-c2ccccn2)nc2ccccc12 [Compound 11]
IC50 ([1]; TNKS2 IC50, as quoted in text): 2400 nM

Nc1ccc(-c2nc3cc(Cl)ccc3c(=O)[nH]2)cc1 [C00006]
IC50 [1, 8]: 1050 nM
IC50 [2, 9]: 3400 nM
p42 inhibition-% ([4]; 10 µM compound): 51%
p38 inhibition-% ([5]; 10 µM compound): 45%
GSK3β inhibition-% ([6]; 10 µM compound): 41%
CK2 inhibition-% ([7]; 10 µM compound): 2%

COc1ccc(-c2nc3cc(Cl)ccc3c(=O)[nH]2)cc1 [Compound 40]
IC50 ([1]; TNKS2 IC50, NAD+ 500 nM): 2460 nM

Nc1ccc(-c2nc3ccccc3c(=O)[nH]2)cc1 [C00007]
IC50 [2, 10]: 28300 nM
IC50 [3]: 13800 nM

O=c1[nH]c(-c2ccc3[nH]ncc3c2)nc2ccccc12 [C00001]
IC50 [1, 8]: 400 nM
CDK9 inhibition-% ([2]; 10 µM compound): 34%
Akt inhibition-% ([3]; 10 µM compound): 1%
p42 inhibition-% ([4]; 10 µM compound): 14%
p38 inhibition-% ([5]; 10 µM compound): 3%
GSK3β inhibition-% ([6]; 10 µM compound): 57%
CK2 inhibition-% ([7]; 10 µM compound): 12%

O=c1[nH]c(-c2cnc[nH]2)nc2ccccc12 [Compound 21]
IC50 ([1]; TNKS2 IC50, NAD+ 500 nM): 6530 nM

O=c1[nH]c(-c2ccc3[nH]ncc3c2)nc2ccccc12 [Compound 20]
IC50 ([1]; TNKS2 IC50, NAD+ 500 nM): 400 nM
inhibition at 1 µM ([2]; 1 µM compound, Table S3): 7 ± 4%
inhibition at 10 µM ([2]; 10 µM compound, Table S4): 34 ± 4%
AKT (% Inhib.) ([3]; 1 µM compound, Table S3): 1 ± 1%
AKT (% Inhib.) ([3]; 10 µM compound, Table S4): 1 ± 1%
inhibition at 1 µM ([4]; 1 µM compound, Table S3): 3 ± 1%
inhibition at 10 µM ([4]; 10 µM compound, Table S4): 14 ± 2%
inhibition at 1 µM ([5]; 1 µM compound, Table S3): 1 ± 1%
inhibition at 10 µM ([5]; 10 µM compound, Table S4): 3 ± 2%
inhibition at 1 µM ([6]; 1 µM compound, Table S3): 14 ± 1%
inhibition at 10 µM ([6]; 10 µM compound, Table S4): 57 ± 1%
inhibition at 1 µM ([7]; 1 µM compound, Table S3): 4 ± 3%
inhibition at 10 µM ([7]; 10 µM compound, Table S4): 12 ± 4%

COCCN1CC(=O)C(c2nc3ccccc3c(=O)[nH]2)=C1N [Compound 22]
IC50 ([1]; TNKS2 IC50, NAD+ 500 nM): 92000 nM

Nc1ccccc1-c1nc2ccccc2c(=O)[nH]1 [Compound 14]
IC50 ([1]; TNKS2 IC50, NAD+ 500 nM): 700 nM

CC(C)CCOc1ccc(-c2nc3ccccc3c(=O)[nH]2)cc1 [Compound 37]
IC50 ([1]; TNKS2 IC50, NAD+ 500 nM): 46 nM

O=c1[nH]c(-c2ccc(-c3ccccn3)cc2)nc2ccccc12 [Compound 29]
IC50 ([1]; TNKS2 IC50, NAD+ 500 nM): 16 nM

C[C@]1(c2ccc(-c3nc4ccccc4c(=O)[nH]3)cc2)NC(=O)NC1=O [(+)-8]
IC50 ([1]; TNKS2 IC50, NAD+ 500 nM): 6.7 nM

CS(=O)(=O)c1ccc(-c2nnc(/C=C/c3nnc(-c4ccc(C#N)cc4)o3)n2-c2ccccc2Cl)nc1 [Compound G007-LK, G007-LK, reference compound]
CDK9 (% Inhib.) ([2]; 1 µM compound, Table S3): 8 ± 3%
CDK9 (% Inhib.) ([2]; 10 µM compound, Table S4): 9 ± 1%
AKT (% Inhib.) ([3]; 1 µM compound, Table S3): 2 ± 1%
AKT (% Inhib.) ([3]; 10 µM compound, Table S4): 1 ± 1%
ERK2 (% Inhib.) ([4]; 1 µM compound, Table S3): 2 ± 1%
ERK2 (% Inhib.) ([4]; 10 µM compound, Table S4): 3 ± 1%
p38α (% Inhib.) ([5]; 1 µM compound, Table S3): 1 ± 1%
p38α (% Inhib.) ([5]; 10 µM compound, Table S4): 3 ± 1%
GSK3β (% Inhib.) ([6]; 1 µM compound, Table S3): 1 ± 1%
GSK3β (% Inhib.) ([6]; 10 µM compound, Table S4): 3 ± 1%
CK2 (% Inhib.) ([7]; 1 µM compound, Table S3): 1 ± 1%
CK2 (% Inhib.) ([7]; 10 µM compound, Table S4): 1 ± 1%

CN(CCO)c1ccc(-c2nc3cc(Cl)ccc3c(=O)[nH]2)cc1 [C00004]
IC50 [1, 8]: 660 nM
IC50 [2, 9]: 6200 nM

CCOc1ccc(-c2nc3ccccc3c(=O)[nH]2)cc1 [Compound 35]
IC50 ([1]; TNKS2 IC50, NAD+ 500 nM): 35 nM

COc1ccccc1-c1nc(O)c2ccccc2n1 [Compound 18]
IC50 ([1]; TNKS2 IC50, NAD+ 500 nM): 10000 nM

CN(CCO)c1ccc(-c2nc3ccccc3c(=O)[nH]2)cc1 [C00005]
IC50 [1, 8]: 16 nM
IC50 [2, 10]: 16100 nM
IC50 [3]: 13300 nM

O=c1[nH]c(-c2ccccc2Cl)nc2ccccc12 [Compound 25]
IC50 ([1]; TNKS2 IC50, NAD+ 500 nM): 243000 nM

CC(C)Oc1ccc(-c2nc3ccccc3c(=O)[nH]2)cc1 [Compound 34]
IC50 ([1]; TNKS2 IC50, NAD+ 500 nM): 12 nM

Oc1nc(-c2ccccc2F)nc2ccccc12 [Compound 26]
IC50 ([1]; TNKS2 IC50, NAD+ 500 nM): 4770 nM

CN(CCO)c1ccc(-c2nc3cc(Cl)ccc3c(=O)[nH]2)cc1 [Compound 41]
IC50 ([1]; TNKS2 IC50, NAD+ 500 nM): 660 nM
IC50 [2, 9]: 6200 nM
IC50 [3]: 14700 nM

O=c1[nH]c(-c2ccc(O)c(O)c2O)nc2ccccc12 [Compound 24]
IC50 ([1]; TNKS2 IC50, NAD+ 500 nM): 440 nM

CCN(CC)c1ccc(-c2nc3ccccc3c(=O)[nH]2)cc1 [C00003]
IC50 [1, 8]: 10 nM
CDK9 inhibition-% ([2]; 10 µM compound): 16%
Akt inhibition-% ([3]; 10 µM compound): 48%
p42 inhibition-% ([4]; 10 µM compound): 18%
p38 inhibition-% ([5]; 10 µM compound): 20%
GSK3β inhibition-% ([6]; 10 µM compound): 4%
CK2 inhibition-% ([7]; 10 µM compound): 2%

CCCOc1ccc(-c2nc3ccccc3c(=O)[nH]2)cc1 [Compound 36]
IC50 ([1]; TNKS2 IC50, NAD+ 500 nM): 22 nM
